# Test results: PubChem BioAssay (NCI)
#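 Cultured in 96-well plates, cells were exposed to test compound for 48 hours across five concentrations. GI50: concentration for 50% inhibition of growth. TGI denotes the concentration required for complete inhibition of growth.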
# Tests used:
# Experiment in all cases: NCI tumour cell line growth inhibition, 48 h
# 786-0 renal = test system: 786-0 renal
# A498 renal = test system: A498 renal
# ACHN renal = test system: ACHN renal
# BT-549 breast = test system: BT-549 breast
# CAKI-1 renal = test system: CAKI-1 renal
# COLO 205 colon = test system: COLO 205 colon
# DU-145 prostate = test system: DU-145 prostate
# EKVX NSCLC = test system: EKVX NSCLC
# HCC-2998 colon = test system: HCC-2998 colon
# HCT-116 colon = test system: HCT-116 colon
# HL-60(TB) leukemia = test system: HL-60(TB) leukemia
# HOP-62 NSCLC = test system: HOP-62 NSCLC
# KM12 colon = test system: KM12 colon
# M14 melanoma = test system: M14 melanoma
# MALME-3M melanoma = test system: MALME-3M melanoma
# MDA-MB-231 breast = test system: MDA-MB-231 breast
# MDA-MB-435 = test system: MDA-MB-435
# MOLT-4 leukemia = test system: MOLT-4 leukemia
# NCI-H23 lung = test system: NCI-H23 lung
# NCI/ADR-RES ovarian = test system: NCI/ADR-RES ovarian
# OVCAR-3 ovarian = test system: OVCAR-3 ovarian
# OVCAR-4 ovarian = test system: OVCAR-4 ovarian
# OVCAR-5 ovarian = test system: OVCAR-5 ovarian
# SF-268 CNS = test system: SF-268 CNS
# SF-295 CNS = test system: SF-295 CNS
# SF-539 CNS = test system: SF-539 CNS
# SK-MEL-2 melanoma = test system: SK-MEL-2 melanoma
# SK-MEL-28 melanoma = test system: SK-MEL-28 melanoma
# SK-MEL-5 melanoma = test system: SK-MEL-5 melanoma
# SNB-75 CNS = test system: SNB-75 CNS
# UACC-257 melanoma = test system: UACC-257 melanoma
# UACC-62 melanoma = test system: UACC-62 melanoma
smiles,measurement,setting,value
CCCN1CCN(c2ccc3nc(-c4ccc5nc(-c6ccc(C(F)(F)F)cc6)[nH]c5c4)[nH]c3c2)CC1,GI50,786-0 renal,1780 nM
same,TGI,786-0 renal,3.27 µM
same,GI50,A498 renal,1870 nM
same,TGI,A498 renal,3.77 µM
same,GI50,ACHN renal,1600 nM
same,TGI,ACHN renal,2960 nM
same,GI50,BT-549 breast,1750 nM
same,TGI,BT-549 breast,3.2 µM
same,GI50,CAKI-1 renal,1760 nM
same,TGI,CAKI-1 renal,3.2 µM
same,GI50,COLO 205 colon,1520 nM
same,TGI,COLO 205 colon,3.24 µM
same,GI50,DU-145 prostate,1900 nM
same,TGI,DU-145 prostate,3.36 µM
same,GI50,EKVX NSCLC,1870 nM
same,TGI,EKVX NSCLC,3.33 µM
same,GI50,HCC-2998 colon,1890 nM
same,TGI,HCC-2998 colon,3.46 µM
same,GI50,HCT-116 colon,1380 nM
same,TGI,HCT-116 colon,2710 nM
same,GI50,HL-60(TB) leukemia,2000 nM
same,TGI,HL-60(TB) leukemia,3.76 µM
same,GI50,HOP-62 NSCLC,1560 nM
same,TGI,HOP-62 NSCLC,3.15 µM
same,GI50,KM12 colon,1780 nM
same,TGI,KM12 colon,3.32 µM
same,GI50,M14 melanoma,1480 nM
same,TGI,M14 melanoma,2880 nM
same,GI50,MALME-3M melanoma,1350 nM
same,TGI,MALME-3M melanoma,2770 nM
same,GI50,MDA-MB-231 breast,1980 nM
same,TGI,MDA-MB-231 breast,3.52 µM
same,GI50,MDA-MB-435,1860 nM
same,TGI,MDA-MB-435,3.47 µM
same,GI50,MOLT-4 leukemia,1870 nM
same,TGI,MOLT-4 leukemia,3.62 µM
same,GI50,NCI-H23 lung,1710 nM
same,TGI,NCI-H23 lung,3.22 µM
same,GI50,NCI/ADR-RES ovarian,6.46 µM
same,TGI,NCI/ADR-RES ovarian,> 100 µM
same,GI50,OVCAR-3 ovarian,1650 nM
same,TGI,OVCAR-3 ovarian,3.07 µM
same,GI50,OVCAR-4 ovarian,1750 nM
same,TGI,OVCAR-4 ovarian,3.44 µM
same,GI50,OVCAR-5 ovarian,1930 nM
same,TGI,OVCAR-5 ovarian,3.36 µM
same,GI50,SF-268 CNS,1880 nM
same,TGI,SF-268 CNS,3.56 µM
same,GI50,SF-295 CNS,1660 nM
same,TGI,SF-295 CNS,3.1 µM
same,GI50,SF-539 CNS,1770 nM
same,TGI,SF-539 CNS,3.2 µM
same,GI50,SK-MEL-2 melanoma,1920 nM
same,TGI,SK-MEL-2 melanoma,3.58 µM
same,GI50,SK-MEL-28 melanoma,1780 nM
same,TGI,SK-MEL-28 melanoma,3.25 µM
same,GI50,SK-MEL-5 melanoma,1770 nM
same,TGI,SK-MEL-5 melanoma,3.48 µM
same,GI50,SNB-75 CNS,1500 nM
same,TGI,SNB-75 CNS,2930 nM
same,GI50,UACC-257 melanoma,1850 nM
same,TGI,UACC-257 melanoma,3.57 µM
same,GI50,UACC-62 melanoma,1660 nM
same,TGI,UACC-62 melanoma,3.23 µM
